Results taken from PubChem BioAssay (NCI).
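Tested at 5 concentrations; 48 h exposure; 96-well plates; endpoints linearly interpolated, else capped at highest concentration. At the GI50, growth is halved. TGI denotes the concentration required for complete inhibition of growth.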

Columns and labels:
Assay in all cases: growth of human tumour cells (NCI), 48 h
[1] = test system: SK-MEL-5 melanoma
[2] = test system: TK-10 renal
[3] = test system: MDA-MB-435
[4] = test system: NCI-H23 lung
[5] = test system: U251 CNS
[6] = test system: CCRF-CEM leukemia
[7] = test system: SR leukemia
[8] = test system: COLO 205 colon
[9] = test system: HOP-62 NSCLC
[10] = test system: SF-539 CNS
[11] = test system: SK-MEL-2 melanoma
[12] = test system: EKVX NSCLC
[13] = test system: SF-295 CNS
[14] = test system: OVCAR-3 ovarian
[15] = test system: PC-3 prostate
[16] = test system: BT-549 breast
[17] = test system: A549 NSCLC
[18] = test system: OVCAR-4 ovarian
[19] = test system: UACC-257 melanoma
[20] = test system: SK-OV-3 ovarian
[21] = test system: MDA-MB-468 breast
[22] = test system: NCI-H460 lung
[23] = test system: HCC-2998 colon
[24] = test system: HS 578T breast
[25] = test system: RPMI-8226 leukemia
[26] = test system: LOX IMVI melanoma
[27] = test system: CAKI-1 renal
[28] = test system: OVCAR-8 ovarian
[29] = test system: SNB-75 CNS
[30] = test system: HOP-92 NSCLC
[31] = test system: SF-268 CNS
[32] = test system: NCI-H522 lung
[33] = test system: K-562 leukemia
[34] = test system: T-47D breast
[35] = test system: OVCAR-5 ovarian
[36] = test system: SNB-19 CNS
[37] = test system: IGROV1 ovarian
[38] = test system: MDA-MB-231 breast
[39] = test system: SW-620 colon
[40] = test system: MCF7 breast
[41] = test system: MALME-3M melanoma
[42] = test system: ACHN renal
[43] = test system: UO-31 renal
[44] = test system: A498 renal
[45] = test system: HT29 colon
[46] = test system: KM12 colon
[47] = test system: MOLT-4 leukemia
[48] = test system: NCI-H226 lung
[49] = test system: HL-60(TB) leukemia
[50] = test system: DU-145 prostate
[51] = test system: RXF 393 renal
[52] = test system: SK-MEL-28 melanoma
[53] = test system: HCT-116 colon
[54] = test system: NCI/ADR-RES ovarian
[55] = test system: 786-0 renal
[56] = test system: UACC-62 melanoma
[57] = test system: HCT-15 colon
[58] = test system: M14 melanoma
[59] = test system: SN12C renal

Work on `COc1ccc(CCN2C(=O)/C(=C/c3csc(C#N)n3)SC2=S)cc1` yielded a GI50 [1] of 15.1 µM, a TGI [1] of 28.3 µM and a GI50 [2] of 10.7 µM. The TGI [2] was 27.7 µM, the GI50 [3] was 12.5 µM and the TGI [3] was 28.3 µM. It also gave a GI50 [4] of 14.6 µM, a TGI [4] of 27.7 µM and a GI50 [5] of 13.1 µM. It also gave a TGI [5] of 26.4 µM, a GI50 [6] of 3.13 µM and a TGI [6] of 9.66 µM. It also gave a GI50 [7] of 3.59 µM, a TGI [7] of 32.4 µM and a GI50 [8] of 16 µM. For the same compound, the TGI [8] was 29.5 µM, the GI50 [9] was 17.5 µM and the TGI [9] was 32 µM. For the same compound, the GI50 [10] was 10.5 µM, the TGI [10] was 22.3 µM and the GI50 [11] was 12.2 µM. The TGI [11] was 24.9 µM, the GI50 [12] was 18.5 µM and the TGI [12] was 34.4 µM. It also gave a GI50 [13] of 17.3 µM, a TGI [13] of 33.9 µM and a GI50 [14] of 10.1 µM. The TGI [14] was 21.7 µM, the GI50 [15] was 12 µM and the TGI [15] was 26.7 µM. The GI50 [16] was 8.93 µM, the TGI [16] was 21.7 µM and the GI50 [17] was 21.3 µM. For the same compound, the TGI [17] was 56.1 µM, the GI50 [18] was 15.5 µM and the TGI [18] was 47 µM. The GI50 [19] was 11.7 µM, the TGI [19] was 27.1 µM and the GI50 [20] was 18.8 µM. The TGI [20] was 37.4 µM, the GI50 [21] was 3.03 µM and the TGI [21] was 13.2 µM. For the same compound, the GI50 [22] was 18.4 µM, the TGI [22] was 39 µM and the GI50 [23] was 15.9 µM. The TGI [23] was 29.4 µM, the GI50 [24] was 21.8 µM and the TGI [24] was 64.9 µM. The GI50 [25] was 4.29 µM, the TGI [25] was 30.6 µM and the GI50 [26] was 3.04 µM. It also gave a TGI [26] of 10.5 µM, a GI50 [27] of 16.9 µM and a TGI [27] of 31.4 µM. It also gave a GI50 [28] of 15.2 µM, a TGI [28] of 29.7 µM and a GI50 [29] of 16.1 µM. For the same compound, the TGI [29] was 31 µM, the GI50 [30] was 2.13 µM and the TGI [30] was 15.1 µM. The GI50 [31] was 15 µM, the TGI [31] was 32.7 µM and the GI50 [32] was 3.03 µM. The TGI [32] was 14 µM, the GI50 [33] was 3.52 µM and the TGI [33] was over 100 µM. The GI50 [34] was 5.7 µM, the TGI [34] was 30.2 µM and the GI50 [35] was 15.6 µM. The TGI [35] was 29 µM, the GI50 [36] was 14.9 µM and the TGI [36] was 28.1 µM. The GI50 [37] was 17.9 µM, the TGI [37] was 34.6 µM and the GI50 [38] was 11.6 µM. The TGI [38] was 24.1 µM, the GI50 [39] was 8.45 µM and the TGI [39] was 21.7 µM. The GI50 [40] was 4.31 µM, the TGI [40] was 15.9 µM and the GI50 [41] was 14.3 µM. For the same compound, the TGI [41] was 28.9 µM, the GI50 [42] was 14.1 µM and the TGI [42] was 27.1 µM. It also gave a GI50 [43] of 10.8 µM, a TGI [43] of 22.6 µM and a GI50 [44] of 16.7 µM. For the same compound, the TGI [44] was 30.3 µM, the GI50 [45] was 14.1 µM and the TGI [45] was 27.1 µM. It also gave a GI50 [46] of 3.82 µM, a TGI [46] of 14.1 µM and a GI50 [47] of 3.52 µM. For the same compound, the TGI [47] was 53.1 µM, the GI50 [48] was 14.5 µM and the TGI [48] was 28.8 µM. The GI50 [49] was 14.5 µM, the TGI [49] was 46.8 µM and the GI50 [50] was 4.6 µM. The TGI [50] was 15.6 µM, the GI50 [51] was 10.4 µM and the TGI [51] was 22.1 µM. It also gave a GI50 [52] of 12.1 µM, a TGI [52] of 24.5 µM and a GI50 [53] of 7.69 µM. It also gave a TGI [53] of 20.7 µM, a GI50 [54] of 15.9 µM and a TGI [54] of 32.3 µM. It also gave a GI50 [55] of 10.2 µM, a TGI [55] of 22.2 µM and a GI50 [56] of 10.9 µM. For the same compound, the TGI [56] was 22.9 µM, the GI50 [57] was 6.19 µM and the TGI [57] was 19.7 µM. The GI50 [58] was 11.5 µM, the TGI [58] was 25.1 µM and the GI50 [59] was 12.3 µM. The TGI [59] was 24.8 µM.
